According to paper PMC8156604, “Development of Phosphodiesterase–Protein-Kinase Complexes as Novel Targets for Discovery of Inhibitors with Enhanced Specificity” (International Journal of Molecular Sciences, 2021):

Assays:
RegA–RD complex = molecular target: T1, RegA–RD complex (Dictyostelium discoideum, UniProt P05987+Q23917); conditions: cGMP 250 µM added to preformed 2fc-RD–RegA complex
T1 construct: gene pkaR
T1 sequence (P05987 1-327): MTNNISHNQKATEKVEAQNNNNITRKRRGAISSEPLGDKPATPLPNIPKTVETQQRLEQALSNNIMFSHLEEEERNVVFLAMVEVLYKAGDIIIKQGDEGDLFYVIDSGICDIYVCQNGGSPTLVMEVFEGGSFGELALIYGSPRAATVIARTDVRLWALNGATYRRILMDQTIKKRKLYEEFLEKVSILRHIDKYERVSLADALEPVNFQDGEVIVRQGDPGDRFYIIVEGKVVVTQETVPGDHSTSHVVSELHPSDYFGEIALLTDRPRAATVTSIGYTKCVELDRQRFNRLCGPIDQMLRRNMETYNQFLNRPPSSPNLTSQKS
T1 sequence (Q23917 1-793): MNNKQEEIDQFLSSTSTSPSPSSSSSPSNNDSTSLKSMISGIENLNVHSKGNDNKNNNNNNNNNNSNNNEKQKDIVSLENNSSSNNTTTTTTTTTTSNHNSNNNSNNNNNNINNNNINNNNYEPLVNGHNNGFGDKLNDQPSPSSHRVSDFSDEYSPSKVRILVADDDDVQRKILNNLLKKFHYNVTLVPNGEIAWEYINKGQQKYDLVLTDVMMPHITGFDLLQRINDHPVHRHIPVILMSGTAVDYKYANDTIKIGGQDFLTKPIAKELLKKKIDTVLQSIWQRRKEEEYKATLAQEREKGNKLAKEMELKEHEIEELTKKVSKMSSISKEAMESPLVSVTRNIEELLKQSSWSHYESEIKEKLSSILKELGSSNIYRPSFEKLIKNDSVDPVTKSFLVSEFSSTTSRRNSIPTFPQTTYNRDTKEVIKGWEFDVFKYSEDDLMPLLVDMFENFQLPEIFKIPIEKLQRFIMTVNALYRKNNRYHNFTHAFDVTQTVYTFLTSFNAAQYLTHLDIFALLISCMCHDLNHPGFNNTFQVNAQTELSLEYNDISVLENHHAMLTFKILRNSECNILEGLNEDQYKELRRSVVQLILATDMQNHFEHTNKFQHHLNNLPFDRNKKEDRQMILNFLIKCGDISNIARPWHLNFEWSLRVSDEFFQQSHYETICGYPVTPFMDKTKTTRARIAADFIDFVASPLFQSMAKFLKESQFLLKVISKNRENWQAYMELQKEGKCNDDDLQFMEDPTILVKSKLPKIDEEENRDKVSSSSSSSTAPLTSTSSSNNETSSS

PDE5–PKG complex = molecular target: T2, PDE5–PKG complex (Homo sapiens, UniProt O76074); conditions: PDE5 with cGMP 100 µM, added to 2fg-PKG
T2 construct: gene PDE5A

Nc1nc2c(ncn2[C@@H]2O[C@@H]3COP(=O)(O)O[C@H]3[C@H]2O)c(=O)[nH]1 [cGMP]
fluorescence polarization, displacement of 2fluo-cAMP (RegA–RD complex): addition of cGMP (lilac plot) resulted in only a partial decrease in FP
fluorescence polarization, 2fluo-cGMP-bound PKG probe (PDE5–PKG complex): suggestive of processive hydrolysis of cGMP by PDE5–PKG composite site
